Experimental data: article PMC9501280, “Anti-Inflammatory Activity of Soluble Epoxide Hydrolase Inhibitors Based on Selenoureas Bearing an Adamantane Moiety” (International Journal of Molecular Sciences, 2022)

Assays:
E. coli MG1655 pOxyR-lux = assay type: cell-based, Escherichia coli; conditions: compounds 1 μM to 1 mM; Standard = hydrogen peroxide 100 μM
Method: (§1) The study was carried out with use of the following whole-cell bacterial biosensors: Escherichia coli MG1655 pOxyR-lux, E. coli MG1655 pDps, E. coli MG1655 pSoxS-lux, E. coli MG1655 pColD-lux, E. coli MG1655 pAlkA-lux, E. coli MG1655 pXen7, Bacillus subtilis 168 pNK-AlkA, B. subtilis 168 pNK-MrgA and B. subtilis 168 pNK-DinC. These biosensors by the quantitation of bacterial stress promoters’ activity, make it possible to determine oxidative stress caused by hydrogen peroxide and the superoxide anion radical, SOS response, DNA alkylation, or general toxicity in Gram-positive and Gram-negative B. subtilis and E. coli cells. We used concentrations from 1 μM to 1 mM of the studied compounds added to the suspension of biosensor cells.
(§2) pColD-lux―PcolD is induced by the SOS response; pDps―Pdps is activated in the presence of DNA-oxidizing agents; pSoxS-lux―PSoxS is induced in the presence of superoxide anion radicals; pOxyR-lux―PoxyR is induced in response to the appearance of hydrogen peroxide or organic peroxides; pAlkA-lux―PalkA is induced in response to DNA alkylation. pXen7 contains P. luminescens ZM1 lux genes controlled by its own promoter, which was used as a constitutive.
(§3) The bioluminescence of cells was measured using a Synergy HT luminometer (Biotek, Winooski, VT, USA) at room temperature. Lux biosensors based on E. coli were grown to an early logarithmic phase (OD ≈ 0.1) to achieve a background luminescence approximately 100–1000 RLU at the beginning of the measurements. Lux biosensors based on B. subtilis were grown to a logarithmic phase with an optical density OD ≈ 0.6 (and background luminescence of about 10–500 RLU). Biosensor cell cultures were divided into portions of 200 μL in a 96-well plate. Control toxicants and studied compounds were added to the cell suspension at 2 µL per well. Mitomycin C (at final concentration of 30 μM) for biosensors induced by the SOS response (PcolD and PdinC); methyl methanesulfonate (1 mM) for biosensors induced by DNA alkylation (PalkA); hydrogen peroxide (100 μM) for biosensors induced by presence of peroxides (PoxyR, Pdps and PmrgA) and methyl viologen (100 μM) for PsoxS activation by the presence of superoxide anion radicals. The kinetics of change in luminescence was measured at room temperature.
(§4) To unify the obtained results and eliminate the differences between the experiments due to different initial luminescence values, the luminescence value in each sample was normalized to the initial value according to Equation (1): (1) Lnorm(t, x)=L(t, x)/L(0, x) where Lnorm(t,x)—luminescence normalized to the initial value for the sample x, L(t,x) is the luminescence of sample x at time t and L(0,x) is the initial luminescence of sample x (immediately after addition of the studied compound or control toxicant). This normalization considers the optical density of the studied compound and the luminescence shielding caused by it, which appears immediately after the addition and facilitates the analysis of a slower effect associated with the general toxicity and activation of stress-inducible promoters for which the typical time of activation is in a range from several minutes to 3 h.
(§5) To determine the luminescence induction coefficient of biosensor cells, observed due to changes in the level of reporter genes transcription, the following equation was used:(2) Kind(t, x)=Lnorm(t, x)/Lnorm(t, contr) where Kind(t) is the calculated luminescence induction coefficient of biosensor cells in sample x at time point t, and Lnorm(t,contr) is the normalized luminescence in the control sample of the same biosensor cells without the addition of the studied compounds.

E. coli MG1655 pDps = assay type: cell-based, Escherichia coli; conditions: compounds 1 μM to 1 mM; Standard = hydrogen peroxide 100 μM
Method: as §1, §2, §3, §4, §5

E. coli MG1655 pAlkA-lux = assay type: cell-based, Escherichia coli; conditions: compounds 1 μM to 1 mM; Standard = methyl methanesulfonate 1 mM
Method: as §1, §2, §3, §4, §5

E. coli MG1655 pColD-lux = assay type: cell-based, Escherichia coli; conditions: compounds 1 μM to 1 mM; Standard = Mitomycin C 30 μM
Method: as §1, §2, §3, §4, §5

E. coli MG1655 pXen7 = assay: Constitutive lux-biosensor, general toxicity; assay type: cell-based, Escherichia coli; conditions: compound at 1 mM; decrease ascribed to shielding of bioluminescence
Method: Importantly, all the studied compounds are poorly soluble in water and can form a suspension at 1 mM; moreover, compound 4a at concentrations above 100 μM presents a substance of dark color and is capable of the partial shielding of bioluminescence.
as §2
The bioluminescence of cells was measured using a Synergy HT luminometer (Biotek, Winooski, VT, USA) at room temperature. Lux biosensors based on E. coli were grown to an early logarithmic phase (OD ≈ 0.1) to achieve a background luminescence approximately 100–1000 RLU at the beginning of the measurements. Lux biosensors based on B. subtilis were grown to a logarithmic phase with an optical density OD ≈ 0.6 (and background luminescence of about 10–500 RLU). Biosensor cell cultures were divided into portions of 200 μL in a 96-well plate. […] The kinetics of change in luminescence was measured at room temperature.

[1] = test system: human neuroblastoma cells (SH-SY5Y); assay: MTT test on neuroblastoma cells; assay type: cell-based; conditions: 72 h, read-out: EC50 ± SEM, SH-SY5Y
Method: For compounds with evident anti-inflammatory activity (4a and 5b) and one outgroup compound (4g), MTT tests with the human fibroblast cells (MRC-5) and human neuroblastoma cells (SH-SY5Y) were carried out. The studied compounds were added in concentrations of 1, 3, 6, 12, 25, 50, and 100 μM.
The MTT test to determine the effect of cell viability was performed on the SH-SY5Y neuroblastoma cell line in a 96-well plate.
Cells grown to 80% confluence were trypsinized and plated at a density of 5000 cells per well (100 µL total well volume) and incubated overnight in a CO2 incubator. The next day, a 50 mM stock of studied compounds in DMSO was diluted in DMEM and added in the amount of 50 μL per well to obtain final concentrations of 1–100 μM. […] After that, the supernatant was discarded, 100 μL of DMSO was added and, after the dissolution of the formazan crystals, the absorbance at 570 nm was measured on a Synergy HT plate reader (Biotek, Winooski, VT, USA). […]
All experiments with SH-SY5Y, E. coli and B. subtilis cell cultures were performed in 3 independent repetitions. The error in the luminescence measurements was calculated using the standard deviation equation based on 3 repeats, its values on the graphs are shown with error bars. EC50 concentrations were determined using Combenefit software.

B. subtilis 168 pNK-MrgA = assay: Lux-biosensor, hydrogen peroxide (PmrgA); assay type: cell-based, Bacillus subtilis; conditions: compounds 1 μM to 1 mM; Standard = hydrogen peroxide 100 μM
Method: as §1, with “biosensor cells. […]” for “biosensor cells.”
The bioluminescence of cells was measured using a Synergy HT luminometer (Biotek, Winooski, VT, USA) at room temperature. Lux biosensors based on E. coli were grown to an early logarithmic phase (OD ≈ 0.1) to achieve a background luminescence approximately 100–1000 RLU at the beginning of the measurements. Lux biosensors based on B. subtilis were grown to a logarithmic phase with an optical density OD ≈ 0.6 (and background luminescence of about 10–500 RLU). […] The kinetics of change in luminescence was measured at room temperature. […]

| SMILES | max(Kind), E. coli MG1655 pOxyR-lux (E. coli MG1655 pOxyR-lux) | max(Kind), E. coli MG1655 pDps (E. coli MG1655 pDps) | max(Kind), E. coli MG1655 pAlkA-lux (E. coli MG1655 pAlkA-lux) | max(Kind), E. coli MG1655 pColD-lux (E. coli MG1655 pColD-lux) | luminescence decrease coefficient of the pXen7 biosensor (E. coli MG1655 pXen7) | EC50 [1] [µM] | max(Kind), B. subtilis 168 pNK-MrgA (B. subtilis 168 pNK-MrgA) |
| --- | --- | --- | --- | --- | --- | --- | --- |
| [Se]=C(Nc1ccccc1)NC12CC3CC(CC(C3)C1)C2 [4a, 1-(Adamantan-1-yl)-3-phenylselenourea] | 2.62 ± 0.7 | 1.15 ± 0.25 | 1.15 ± 0.33 | 1.5 ± 0.6 | 0.29 ± 0.08 | 16.5 ± 1.5 | 1.2 ± 0.5 |
| [Se]=C(Nc1ccccc1)NC1C2CC3CC(C2)CC1C3 (stereo not shown) [4g, 1-(Adamantan-2-yl)-3-phenylselenourea] | 1.12 ± 0.16 | 1.2 ± 0.4 | 1.05 ± 0.30 | 1.26 ± 0.31 |  | 8.6 ± 0.9 | 1.2 ± 0.3 |
